Reference: US20240262795A1, “PYRAZINE COMPOUNDS AS INHIBITORS OF FLT3” (Biomea Fusion, Inc., priority 2021, published 2024)

Columns and labels:
[1] = molecular target: T1, FLT3-ITD (Homo sapiens, UniProt P36888, DUP595-601); assay: FLT3-ITD Lance Ultra TR-FRET kinase assay; assay type: biochemical
T1 construct: purchased Signalchem F-12-12CG-10
T1 sequence (P36888 with tags, fused parts or gaps DUP595-601 limits assumed): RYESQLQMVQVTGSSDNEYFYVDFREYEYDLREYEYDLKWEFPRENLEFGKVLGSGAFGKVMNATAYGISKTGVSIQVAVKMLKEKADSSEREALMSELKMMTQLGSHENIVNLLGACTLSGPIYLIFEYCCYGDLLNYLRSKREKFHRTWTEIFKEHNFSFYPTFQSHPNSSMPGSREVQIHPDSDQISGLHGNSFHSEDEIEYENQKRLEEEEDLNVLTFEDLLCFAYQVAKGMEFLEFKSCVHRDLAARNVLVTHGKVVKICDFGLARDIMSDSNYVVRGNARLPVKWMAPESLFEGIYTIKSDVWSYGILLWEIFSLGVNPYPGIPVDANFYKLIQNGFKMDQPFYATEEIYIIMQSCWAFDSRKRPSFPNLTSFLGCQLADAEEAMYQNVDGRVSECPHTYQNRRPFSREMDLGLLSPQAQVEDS
Text: (§1) High throughput 384-well Lance Ultra TR-FRET based kinase assays were established for the WT FLT3 and FLT3-ITD enzymes and employed a ULight-labeled peptide […] and FLT3 proteins labelled with Eu-conjugated antibody […] (WuXi Aptec). The principle of TR-FRET is based on transfer of energy between a donor and acceptor fluorophore that results when the fluorophores are within close proximity (˜100 Å) of each other. Recombinant WT FLT3 (#PR4666C, M.W. 48.6 kDa) was purchased from Invitrogen and FLT3-ITD (FLT3-ITD-W51, #F-12-12CG-10, M.W. 76 kDa) was purchased from Signalchem. Optimal assay conditions for the WT FLT3 enzyme assay were as follows: 0.5 nM FLT3 protein, 50 nM ULight-JAK-1 (Tyr1023) substrate peptide (PerkinElmer #TRF0121), 100 μM ATP, 60 min reaction time. Optimal assay conditions for the FLT3-ITD enzyme assay were as follows: 0.0625 nM FLT3-ITD protein, 50 nM ULight-JAK-1 (Tyr1023) substrate peptide, 50 μM ATP, 90 min reaction time. Briefly, 11 dose 3× serial dilutions were prepared for the test compounds and the reference compound and 100 nanoliters transferred to appropriate wells of 384-well assay plates. Five microliters of 2× enzyme/peptide were added into assay wells, assay plates centrifuged at 1000 rpm for about 30 seconds, sealed with sealing film and incubated for 30 min at 23° C. Assay buffer comprised 50 mM HEPES (pH 7.5), 1 mM EDTA, 0.01% Brij-35, 10 mM MgCl2 and 2 mM DTT. Next 5 μl of a 2× ATP mixture were added into the assay wells and the plates centrifuged at 1000 rpm about 30 seconds, sealed with sealing film and incubated for 23° C. for appropriate duration. Following assay incubation (30 min for WT FLT3 and 60 min for FLT3-ITD) 10 μl 2× Detection Mixture (Eu-W1024 Anti-phosphotyrosine (PT66) 2 nM and EDTA 10 mM) was added to assay wells, assay plates centrifuge at 1000 rpm about 1 minutes, sealed with sealing film and incubated at 23° C. for 60 minutes. Assay plates were read on a Perkin Elmer Envision reader at two wavelengths (665/615) and the ratio of […] calculated.
(§2) Data was expressed as % of inhibition relative to the vehicle control and calculated as follows:
(§3) Results were analyzed by XLFIT5 as % inhibition vs. log [compound concentration] and IC50 values were calculated by non-linear regression using four parameter-logistic equation. Fit=(A+((B−A)/(1+((C/x)^D)))). Res=(y−fit).

[2] = test system: MV-4-11; assay: Proliferation inhibition, CellTiter-Glo, MV-4-11; assay type: cell-based, human; settings: Homo sapiens, MV4-11, 96 h; MV-4:11 cells, IC50 (4 days), CellTiter-Glo; read-out: MV-4:11 IC50
Method in brief: (§4)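 About 10,000 cells per well in RPMI-1640 with 10% FBS. Compounds added 2 h after seeding at eight concentrations in duplicate (0.2% DMSO as 100% proliferation), then incubated ~96 h at 37° C, 5% CO2. ATP measured by CellTiter-Glo luminescence; IC50 from four-parameter logistic fit.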

[3] = molecular target: T2, WT FLT3 (Homo sapiens, UniProt P36888); assay: WT FLT3 Lance Ultra TR-FRET kinase assay; assay type: biochemical
T2 construct: purchased Invitrogen PR4666C
T2 sequence (P36888 564-993 limits assumed): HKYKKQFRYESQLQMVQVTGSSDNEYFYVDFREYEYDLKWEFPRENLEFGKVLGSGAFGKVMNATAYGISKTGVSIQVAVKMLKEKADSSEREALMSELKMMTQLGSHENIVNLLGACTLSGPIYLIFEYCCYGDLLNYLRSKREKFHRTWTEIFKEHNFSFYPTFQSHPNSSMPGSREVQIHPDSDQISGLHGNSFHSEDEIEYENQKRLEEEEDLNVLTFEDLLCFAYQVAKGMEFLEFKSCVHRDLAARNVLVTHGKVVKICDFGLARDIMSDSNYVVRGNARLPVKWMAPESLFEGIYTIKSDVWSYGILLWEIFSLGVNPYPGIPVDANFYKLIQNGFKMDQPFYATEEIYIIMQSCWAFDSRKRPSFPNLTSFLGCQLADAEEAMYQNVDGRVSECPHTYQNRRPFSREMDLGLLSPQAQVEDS
Text: as §1, §2, §3

[4] = test system: MOLM-13; assay: Proliferation inhibition, CellTiter-Glo, MOLM-13; assay type: cell-based, human; settings: Homo sapiens, 96 h; MOLM-13 cells, IC50 (4 days), CellTiter-Glo; read-out: MOLM-13 IC50
Method in brief: as §4

[5] = test system: K-562; assay: Proliferation inhibition, CellTiter-Glo, K-562; assay type: cell-based, human; settings: Homo sapiens, K562, 96 h; K-562 cells, IC50 (4 days), CellTiter-Glo; read-out: K-562 IC50
Method in brief: as §4

SMILES	IC50 [1] [nM]	IC50 [2] [nM]	IC50 [3] [nM]	IC50 [4] [nM]	IC50 [5] [nM]
CCc1nc(C(N)=O)c(Nc2cccc(CCNC(=O)[C@H](C)NC(=O)/C=C/CN(C)C)c2)nc1N(C)C(C)C [Compound 502, (S,E)-3-((3-(2-(2-(4-(dimethylamino)but-2-enamido)propanamido)ethyl)phenyl)amino)-6-ethyl-5-(isopropyl(methyl)amino) pyrazine-2-carboxamide]	0.201 to 0.5	< 1	0.101 to 0.2	< 1	> 500
CCc1nc(Nc2cccc([C@H](C)CNC(=O)CN(C)C(=O)/C=C/CN3CCC3)c2)c(C(N)=O)nc1CC [Compound 519, (S,E)-3-((3-(1-(2-(4-(azetidin-1-yl)-N-methylbut-2-enamido)acetamido)propan-2-yl)phenyl)amino)-5,6-diethylpyrazine-2-carboxamide]	> 1	1 to 10	> 1	10 to 100	> 500
C=CC(=O)N(C)[C@@H](C)C(=O)NCCc1cccc(Nc2nc(N(C)C)c(CC)nc2C(N)=O)c1 [Compound 213, (S)-5-(dimethylamino)-6-ethyl-3-((3-(2-(2-(N-methylacrylamido)propanamido)ethyl)phenyl)amino)pyrazine-2-carboxamide]	0.101 to 0.2	< 1	0.501 to 1	1 to 10	> 500
Cc1nc(C(N)=O)c(Nc2cc(F)cc(CCNC(=O)[C@H](C)N(C)C(=O)/C=C/CN(C)C)c2)nc1C1CC1 [Compound 254, (S,E)-5-cyclopropyl-3-((3-(2-(2-(4-(dimethylamino)-N-methylbut-2-enamido)propanamido)ethyl)-5-fluorophenyl)amino)-6-methylpyrazine-2-carboxamide]	0.501 to 1	< 1	0.501 to 1	1 to 10	> 500
CCc1nc(C(N)=O)c(Nc2cc(F)cc(CCNC(=O)[C@H](C)N(C)C(=O)/C=C/CN(C)C)c2)nc1N(C)C [Compound 158, (S,E)-5-(dimethylamino)-3-((3-(2-(2-(4-(dimethylamino)-N-methylbut-2-enamido)propanamido)ethyl)-5-fluorophenyl)amino)-6-ethylpyrazine-2-carboxamide]	0.101 to 0.2	< 1	0.101 to 0.2	< 1	> 500
C#Cc1nc(C(N)=O)c(Nc2cccc(CCNC(=O)CN(C)C(=O)/C=C/CN(C)C)c2)nc1N(C)C(C)C [Compound 327, (E)-3-((3-(2-(2-(4-(dimethylamino)-N-methylbut-2-enamido)acetamido)ethyl)phenyl)amino)-6-ethynyl-5-(isopropyl (methyl)amino) pyrazine-2-carboxamide]	0.201 to 0.5	10 to 100	0.501 to 1	1 to 10	> 500
CCc1nc(C(N)=O)c(Nc2cncc(CCNC(=O)[C@H](C)N(C)C(=O)/C=C/CN(C)C)c2)nc1C1CC1 [Compound 306, (S, E)-5-cyclopropyl-3-((5-(2-(2-(4-(dimethylamino)-N-methylbut-2-enamido)propanamido)ethyl)pyridin-3-yl)amino)-6-ethylpyrazine-2-carboxamide]	> 1	1 to 10	0.501 to 1	1 to 10	–
CCc1nc(C(N)=O)c(Nc2cccc(CCNC(=O)[C@H](C)N(C)C(=O)/C=C/CN3CCC3)c2)nc1N(C)C [Compound 156, (S,E)-3-((3-(2-(2-(4-(azetidin-1-yl)-N-methylbut-2-enamido)propanamido)ethyl)phenyl)amino)-5-(dimethylamino)-6-ethylpyrazine-2-carboxamide]	0.201 to 0.5	< 1	0.201 to 0.5	< 1	> 500
C=CC(=O)N(C)CC(=O)NCCc1cccc(Nc2nc(N(C)CC)c(CC)nc2C(N)=O)c1 [Compound 511, 6-ethyl-5-(ethyl(methyl)amino)-3-((3-(2-(2-(N-methylacrylamido)acetamido)ethyl)phenyl)amino) pyrazine-2-carboxamide]	≤ 0.1	1 to 10	0.201 to 0.5	< 1	> 500
CCc1nc(C(N)=O)c(Nc2cc(F)cc(CCNC(=O)[C@H](C)N(C)C(=O)/C=C/CN(C)C)c2)nc1C [Compound 163, 3-[3-[2-[[(2S)-2-[[(E)-4-(dimethylamino)but-2-enoyl]-methyl-amino]propanoyl]amino]ethyl]-5-fluoro-anilino]-6-ethyl-5-methyl-pyrazine-2-carboxamide]	–	1 to 10	–	1 to 10	> 500
CCc1nc(C(N)=O)c(Nc2cccc(CCNC(=O)[C@H](C)N(C)C(=O)/C=C/CNC)c2)nc1C1CC1 [Compound 224, (S,E)-5-cyclopropyl-6-ethyl-3-((3-(2-(2-(N-methyl-4-(methylamino)but-2-enamido)propanamido)ethyl)phenyl)amino)pyrazine-2-carboxamide]	–	< 1	–	1 to 10	> 500
Cc1nc(Nc2cccc(CCNC(=O)[C@H](C)N(C)C(=O)/C=C/CN3CCC3)c2)c(C(N)=O)nc1C [Compound 214, 3-[3-[2-[[(2S)-2-[[(E)-4-(azetidin-1-yl)but-2-enoyl]-methyl-amino]propanoyl]amino]ethyl]anilino]-5,6-dimethyl-pyrazine-2-carboxamide]	–	10 to 100	–	10 to 100	> 500
CCc1nc(C(N)=O)c(Nc2cccc(C[C@@H](C)NC(=O)[C@H](C)N(C)C(=O)/C=C/CN(C)C)c2)nc1C [Compound 314, 3-[3-[(2R)-2-[[(2S)-2-[[(E)-4-(dimethylamino)but-2-enoyl]-methyl-amino]propanoyl]amino]propyl]anilino]-6-ethyl-5-methyl-pyrazine-2-carboxamide]	–	10 to 100	–	100 to 500	> 500
CCc1nc(C(N)=O)c(Nc2cccc(CCNC(=O)[C@@H](C)N(C)C(=O)/C=C/CN(C)C)c2)nc1C [Compound 234, 3-[3-[2-[[(2R)-2-[[(E)-4-(dimethylamino)but-2-enoyl]-methyl-amino]propanoyl]amino]ethyl]anilino]-6-ethyl-5-methyl-pyrazine-2-carboxamide]	–	10 to 100	–	> 500	> 500
